# Measurements: patent publication US9376470B2, “Polypeptide having angiogenesis-inducing activity and antibacterial activity, and use thereof for medical purposes” (FunPep Inc., priority 2008, dated 2016)
# Peptide text beside a SMILES is read from it.
# Tested on: human vascular endothelial cells and fibroblast cells (co-culture, Angiogenesis Kit KZ-1000)
# Conditions: polypeptide 10 μg/mL, day 11 of culture
# Protocol: Using AG30-5C as a positive control, the angiogenesis-inducing activity of SR-1 and SR-2 was measured. […] As a negative control, polypeptide-free group (Control) was used.
# Cells were cultured at 37° C. under 5% CO2 in a 24-well plate using the special media to which the polypeptide was added. The medium was replaced with a medium containing the same polypeptide on day 4, day 7 and day 9 of culture. On day 11 from the beginning of the culture, the medium was removed and staining was performed using a kit for staining lumina (for CD31 antibody staining) according to the following procedure.
# The primary antibody (mouse anti-human CD31 antibody) was 4000-fold diluted with a blocking solution (Dulbecco's phosphate buffered saline (PBS(−)) containing 1% BSA). To each well, 0.5 mL of this primary antibody solution was added, and the plate was incubated for 60 minutes at 37° C. After the completion of the incubation, each well was washed totally 3 times with 1 mL of the blocking solution.
# Then, 0.5 mL of a secondary antibody solution (goat anti-mouse IgG/alkaline phosphatase conjugate) 500-fold diluted with the blocking solution was added to each well. The plate was incubated for 60 minutes at 37° C., and thereafter each well was washed 3 times with 1 mL of distilled water. During that period, 2 tablets of BCIP/NBT were dissolved into distilled water, and the obtained solution was filtered through a filter having a pore size of 0.2 μm to prepare a substrate solution. To each well, 0.5 mL of the prepared BCIP/NBT substrate solution was added, and the plate was incubated at 37° C. until the lumina turned to deep purple (typically for 5-10 minutes). After the completion of the incubation, each well was washed 3 times with 1 mL of distilled water. After washing, the washing solution was removed by aspiration, and the plate was left to stand and dry naturally. After drying, photographs of each well were taken under a microscope.
# Each of the obtained images was quantified using an angiogenesis quantification software. Computer analysis was carried out on various parameters.
smiles,measurement,value
"CC[C@H](C)[C@H](NC(=O)[C@H](CC(C)C)NC(=O)[C@H](CCCCN)NC(=O)[C@H](CC(C)C)NC(=O)[C@@H](N)CCSC)C(=O)N[C@@H](Cc1ccccc1)C(=O)N[C@@H](CC(C)C)C(=O)N[C@@H](Cc1c[nH]cn1)C(=O)N[C@@H](CCCNC(=N)N)C(=O)N[C@@H](CC(C)C)C(=O)N[C@@H](CCCCN)C(=O)N[C@@H](CCCNC(=N)N)C(=O)N[C@@H](CCSC)C(=O)N[C@@H](CCCNC(=N)N)C(=O)N[C@@H](CCCCN)C(=O)N[C@@H](CCCNC(=N)N)C(=O)N[C@@H](CC(C)C)C(=O)N[C@@H](CCCCN)C(=O)N[C@@H](CCCNC(=N)N)C(=O)N[C@@H](CCCCN)C(=O)N[C@@H](CC(C)C)C(=O)N[C@@H](CCCNC(=N)N)C(=O)N[C@@H](Cc1ccccc1)C(=O)N[C@@H](Cc1c[nH]c2ccccc12)C(=O)N[C@@H](Cc1c[nH]cn1)C(=O)N[C@@H](CCCNC(=N)N)C(=O)N[C@@H](CCCCN)C(=O)N[C@@H](CCCNC(=N)N)C(=O)N[C@@H](Cc1ccc(O)cc1)C(=O)N[C@@H](CCCCN)C(=O)O [AG30-5C, reference compound] (H-MLKLIFLHRLKRMRKRLKRKLRFWHRKRYK-OH; N-terminus and C-terminus assumed)",The Length of Lumina (Percentage when taking Control as 100),119.1%
